Reference: the supplement of paper PMC10307832

Tests used:
Test in all cases: relative viability (nuclei count vs DMSO), 5 days (fraction); higher = more cells survive
AGI-6780 = compound: O=C(Nc1cccc(C(F)(F)F)c1)Nc1cc(S(=O)(=O)NC2CC2)ccc1-c1ccsc1 [AGI-6780]
Summary of the method: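 Following overnight incubation at 37 °C, lung cancer cell lines in 1536-well plates were pinned with five library-drug doses (not always all listed) in √10 steps on vehicle-anchored plates. The cells then spent 5 days without medium change before a combined fix, permeabilisation and Hoechst stain, 4× imaging and MetaXpress nuclear counts. Viability is the treated-to-vehicle ratio of nuclei, taken as the median across plates. Only plates with control CV below 25% and at least one doubling passed.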

AGI-6780 + Navitoclax = compound: O=C(Nc1cccc(C(F)(F)F)c1)Nc1cc(S(=O)(=O)NC2CC2)ccc1-c1ccsc1 [AGI-6780] + CC1(C)CCC(c2ccc(Cl)cc2)=C(CN2CCN(c3ccc(C(=O)NS(=O)(=O)c4ccc(N[C@H](CCN5CCOCC5)CSc5ccccc5)c(S(=O)(=O)C(F)(F)F)c4)cc3)CC2)C1 [Navitoclax] (partner 0.5 µM)
Summary of the method: (§1)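 Relative viability divides the nuclei count in treated wells by that in vehicle wells. Lung cancer cell lines were seeded in 1536-well plates, dosed by pin tool the next day, and fixed and stained after 5 days in one step with final 0.05% Triton X-100, 1% formaldehyde and 1 ug/ml Hoechst. Dosing was a single drug or a fixed anchor-drug dose plus five library-drug doses (not always all listed) in √10 steps, and values are medians of duplicate plates imaged at 4×.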

AGI-6780 + Foretinib = compound: O=C(Nc1cccc(C(F)(F)F)c1)Nc1cc(S(=O)(=O)NC2CC2)ccc1-c1ccsc1 [AGI-6780] + COc1cc2c(Oc3ccc(NC(=O)C4(C(=O)Nc5ccc(F)cc5)CC4)cc3F)ccnc2cc1OCCCN1CCOCC1 [Foretinib] (partner 0.25 µM)
Summary of the method: as §1

AGI-6780 + Lapatinib = compound: O=C(Nc1cccc(C(F)(F)F)c1)Nc1cc(S(=O)(=O)NC2CC2)ccc1-c1ccsc1 [AGI-6780] + CS(=O)(=O)CCNCc1ccc(-c2ccc3ncnc(Nc4ccc(OCc5cccc(F)c5)c(Cl)c4)c3c2)o1 [Lapatinib] (partner 2 µM)
Summary of the method: as §1

AGI-6780 + Pictilisib = compound: O=C(Nc1cccc(C(F)(F)F)c1)Nc1cc(S(=O)(=O)NC2CC2)ccc1-c1ccsc1 [AGI-6780] + CS(=O)(=O)N1CCN(Cc2cc3nc(-c4cccc5[nH]ncc45)nc(N4CCOCC4)c3s2)CC1 [Pictilisib] (partner 1 µM)
Summary of the method: as §1

AGI-6780 + Crizotinib = compound: O=C(Nc1cccc(C(F)(F)F)c1)Nc1cc(S(=O)(=O)NC2CC2)ccc1-c1ccsc1 [AGI-6780] + C[C@@H](Oc1cc(-c2cnn(C3CCNCC3)c2)cnc1N)c1c(Cl)ccc(F)c1Cl [Crizotinib] (partner 1 µM)
Summary of the method: as §1

AGI-6780 + Linsitinib = compound: O=C(Nc1cccc(C(F)(F)F)c1)Nc1cc(S(=O)(=O)NC2CC2)ccc1-c1ccsc1 [AGI-6780] + C[C@]1(O)C[C@@H](c2nc(-c3ccc4ccc(-c5ccccc5)nc4c3)c3c(N)nccn32)C1 [Linsitinib] (partner 1 µM)
Summary of the method: as §1

AGI-6780 + Alpelisib = compound: O=C(Nc1cccc(C(F)(F)F)c1)Nc1cc(S(=O)(=O)NC2CC2)ccc1-c1ccsc1 [AGI-6780] + Cc1nc(NC(=O)N2CCC[C@H]2C(N)=O)sc1-c1ccnc(C(C)(C)C(F)(F)F)c1 [Alpelisib] (partner 2 µM)
Summary of the method: as §1

AGI-6780 + Phenformin = compound: O=C(Nc1cccc(C(F)(F)F)c1)Nc1cc(S(=O)(=O)NC2CC2)ccc1-c1ccsc1 [AGI-6780] + N=C(N)NC(=N)NCCc1ccccc1 [Phenformin] (partner 250 µM)
Summary of the method: as §1

AGI-6780 + Decitabine = compound: O=C(Nc1cccc(C(F)(F)F)c1)Nc1cc(S(=O)(=O)NC2CC2)ccc1-c1ccsc1 [AGI-6780] + Nc1ncn([C@H]2C[C@H](O)[C@@H](CO)O2)c(=O)n1 [Decitabine] (partner 2 µM)
Summary of the method: as §1

AGI-6780 + Olaparib = compound: O=C(Nc1cccc(C(F)(F)F)c1)Nc1cc(S(=O)(=O)NC2CC2)ccc1-c1ccsc1 [AGI-6780] + O=C(c1cc(Cc2n[nH]c(=O)c3ccccc23)ccc1F)N1CCN(C(=O)C2CC2)CC1 [Olaparib] (partner 8 µM)
Summary of the method: as §1

AGI-6780 + Bortezomib = compound: O=C(Nc1cccc(C(F)(F)F)c1)Nc1cc(S(=O)(=O)NC2CC2)ccc1-c1ccsc1 [AGI-6780] + CC(C)C[C@H](NC(=O)[C@H](Cc1ccccc1)NC(=O)c1cnccn1)B(O)O [Bortezomib] (partner 0.002 µM)
Summary of the method: as §1

AGI-6780 + Vorinostat = compound: O=C(Nc1cccc(C(F)(F)F)c1)Nc1cc(S(=O)(=O)NC2CC2)ccc1-c1ccsc1 [AGI-6780] + O=C(CCCCCCC(=O)Nc1ccccc1)NO [Vorinostat] (partner 1 µM)
Summary of the method: as §1

A549
relative viability (AGI-6780; 0.08 µM): 0.992
relative viability (AGI-6780; 0.253 µM): 0.992
relative viability (AGI-6780; 0.8 µM): 1.08
relative viability (AGI-6780; 2.53 µM): 0.745
relative viability (AGI-6780; 8 µM): 0.992
relative viability (AGI-6780 + Navitoclax; first compound 0.08 µM): 1.31
relative viability (AGI-6780 + Navitoclax; first compound 0.253 µM): 1.27
relative viability (AGI-6780 + Navitoclax; first compound 0.8 µM): 1.37
relative viability (AGI-6780 + Navitoclax; first compound 2.53 µM): 1.13
relative viability (AGI-6780 + Navitoclax; first compound 8 µM): 1.23
relative viability (AGI-6780 + Foretinib; first compound 0.08 µM): 1.04
relative viability (AGI-6780 + Foretinib; first compound 0.253 µM): 0.956
relative viability (AGI-6780 + Foretinib; first compound 0.8 µM): 0.88
relative viability (AGI-6780 + Foretinib; first compound 2.53 µM): 0.729
relative viability (AGI-6780 + Foretinib; first compound 8 µM): 1.07
relative viability (AGI-6780 + Lapatinib; first compound 0.08 µM): 0.999
relative viability (AGI-6780 + Lapatinib; first compound 0.253 µM): 0.968
relative viability (AGI-6780 + Lapatinib; first compound 0.8 µM): 1.14
relative viability (AGI-6780 + Lapatinib; first compound 2.53 µM): 0.927
relative viability (AGI-6780 + Lapatinib; first compound 8 µM): 1.06
relative viability (AGI-6780 + Pictilisib; first compound 0.08 µM): 0.583
relative viability (AGI-6780 + Pictilisib; first compound 0.253 µM): 0.463
relative viability (AGI-6780 + Pictilisib; first compound 0.8 µM): 0.604
relative viability (AGI-6780 + Pictilisib; first compound 2.53 µM): 0.459
relative viability (AGI-6780 + Pictilisib; first compound 8 µM): 0.463
relative viability (AGI-6780 + Crizotinib; first compound 0.08 µM): 0.763
relative viability (AGI-6780 + Crizotinib; first compound 0.253 µM): 0.765
relative viability (AGI-6780 + Crizotinib; first compound 0.8 µM): 0.855
relative viability (AGI-6780 + Crizotinib; first compound 2.53 µM): 0.625
relative viability (AGI-6780 + Crizotinib; first compound 8 µM): 0.836
relative viability (AGI-6780 + Linsitinib; first compound 0.08 µM): 0.585
relative viability (AGI-6780 + Linsitinib; first compound 0.253 µM): 0.594
relative viability (AGI-6780 + Linsitinib; first compound 0.8 µM): 0.701
relative viability (AGI-6780 + Linsitinib; first compound 2.53 µM): 0.452
relative viability (AGI-6780 + Linsitinib; first compound 8 µM): 0.545
relative viability (AGI-6780 + Alpelisib; first compound 0.08 µM): 0.797
relative viability (AGI-6780 + Alpelisib; first compound 0.253 µM): 0.662
relative viability (AGI-6780 + Alpelisib; first compound 0.8 µM): 0.76
relative viability (AGI-6780 + Alpelisib; first compound 2.53 µM): 0.593
relative viability (AGI-6780 + Alpelisib; first compound 8 µM): 0.747
relative viability (AGI-6780 + Phenformin; first compound 0.08 µM): 0.153
relative viability (AGI-6780 + Phenformin; first compound 0.253 µM): 0.177
relative viability (AGI-6780 + Phenformin; first compound 0.8 µM): 0.25
relative viability (AGI-6780 + Phenformin; first compound 2.53 µM): 0.133
relative viability (AGI-6780 + Phenformin; first compound 8 µM): 0.175
relative viability (AGI-6780 + Decitabine; first compound 0.08 µM): 0.329
relative viability (AGI-6780 + Decitabine; first compound 0.253 µM): 0.211
relative viability (AGI-6780 + Decitabine; first compound 0.8 µM): 0.275
relative viability (AGI-6780 + Decitabine; first compound 2.53 µM): 0.292
relative viability (AGI-6780 + Decitabine; first compound 8 µM): 0.322
relative viability (AGI-6780 + Olaparib; first compound 0.08 µM): 0.32
relative viability (AGI-6780 + Olaparib; first compound 0.253 µM): 0.298
relative viability (AGI-6780 + Olaparib; first compound 0.8 µM): 0.337
relative viability (AGI-6780 + Olaparib; first compound 2.53 µM): 0.302
relative viability (AGI-6780 + Olaparib; first compound 8 µM): 0.377

IA-LM
relative viability (AGI-6780; 0.08 µM): 0.921
relative viability (AGI-6780; 0.253 µM): 0.954
relative viability (AGI-6780; 0.8 µM): 1.15
relative viability (AGI-6780; 2.53 µM): 1.02
relative viability (AGI-6780; 8 µM): 1.04
relative viability (AGI-6780 + Bortezomib; first compound 0.08 µM): 0.91
relative viability (AGI-6780 + Bortezomib; first compound 0.253 µM): 0.876
relative viability (AGI-6780 + Bortezomib; first compound 0.8 µM): 0.811
relative viability (AGI-6780 + Bortezomib; first compound 2.53 µM): 0.977
relative viability (AGI-6780 + Bortezomib; first compound 8 µM): 0.829
relative viability (AGI-6780 + Navitoclax; first compound 0.08 µM): 0.761
relative viability (AGI-6780 + Navitoclax; first compound 0.253 µM): 0.768
relative viability (AGI-6780 + Navitoclax; first compound 0.8 µM): 0.908
relative viability (AGI-6780 + Navitoclax; first compound 2.53 µM): 0.787
relative viability (AGI-6780 + Navitoclax; first compound 8 µM): 0.959
relative viability (AGI-6780 + Foretinib; first compound 0.08 µM): 1.28
relative viability (AGI-6780 + Foretinib; first compound 0.253 µM): 1.13
relative viability (AGI-6780 + Foretinib; first compound 0.8 µM): 1.21
relative viability (AGI-6780 + Foretinib; first compound 2.53 µM): 1.13
relative viability (AGI-6780 + Foretinib; first compound 8 µM): 1.15
relative viability (AGI-6780 + Lapatinib; first compound 0.08 µM): 1.01
relative viability (AGI-6780 + Lapatinib; first compound 0.253 µM): 0.845
relative viability (AGI-6780 + Lapatinib; first compound 0.8 µM): 0.928
relative viability (AGI-6780 + Lapatinib; first compound 2.53 µM): 0.83
relative viability (AGI-6780 + Lapatinib; first compound 8 µM): 0.896
relative viability (AGI-6780 + Pictilisib; first compound 0.08 µM): 0.452
relative viability (AGI-6780 + Pictilisib; first compound 0.253 µM): 0.38
relative viability (AGI-6780 + Pictilisib; first compound 0.8 µM): 0.39
relative viability (AGI-6780 + Pictilisib; first compound 2.53 µM): 0.301
relative viability (AGI-6780 + Pictilisib; first compound 8 µM): 0.476
relative viability (AGI-6780 + Crizotinib; first compound 0.08 µM): 1.12
relative viability (AGI-6780 + Crizotinib; first compound 0.253 µM): 0.76
relative viability (AGI-6780 + Crizotinib; first compound 0.8 µM): 1.09
relative viability (AGI-6780 + Crizotinib; first compound 2.53 µM): 0.827
relative viability (AGI-6780 + Crizotinib; first compound 8 µM): 0.876
relative viability (AGI-6780 + Linsitinib; first compound 0.08 µM): 0.58
relative viability (AGI-6780 + Linsitinib; first compound 0.253 µM): 0.627
relative viability (AGI-6780 + Linsitinib; first compound 0.8 µM): 0.762
relative viability (AGI-6780 + Linsitinib; first compound 2.53 µM): 0.536
relative viability (AGI-6780 + Linsitinib; first compound 8 µM): 0.56
relative viability (AGI-6780 + Alpelisib; first compound 0.08 µM): 0.858
relative viability (AGI-6780 + Alpelisib; first compound 0.253 µM): 0.846
relative viability (AGI-6780 + Alpelisib; first compound 0.8 µM): 0.719
relative viability (AGI-6780 + Alpelisib; first compound 2.53 µM): 0.797
relative viability (AGI-6780 + Alpelisib; first compound 8 µM): 0.707
relative viability (AGI-6780 + Vorinostat; first compound 0.253 µM): 0.857
relative viability (AGI-6780 + Vorinostat; first compound 0.8 µM): 1.06
relative viability (AGI-6780 + Vorinostat; first compound 2.53 µM): 1.04
relative viability (AGI-6780 + Vorinostat; first compound 8 µM): 0.778
relative viability (AGI-6780 + Olaparib; first compound 0.08 µM): 1.05
relative viability (AGI-6780 + Olaparib; first compound 0.253 µM): 0.763
relative viability (AGI-6780 + Olaparib; first compound 0.8 µM): 1
relative viability (AGI-6780 + Olaparib; first compound 2.53 µM): 0.869
relative viability (AGI-6780 + Olaparib; first compound 8 µM): 0.927
